Laboratory results taken from patent US20240158446A1, “CYCLIC COMPOUND HAVING SELECTIVE INHIBITORY ACTION ON KRAS OVER HRAS AND NRAS” (CHUGAI SEIYAKU KABUSHIKI KAISHA, priority 2021, published 2024).
Where a SMILES comes first, the peptide text is derived from it. Bridges are numbered along the chain shown (N, C = ends). [ ]: non-standard residue; d: D form. The star is where a group is joined. hPhe(3-Cl-4-CF3) = N[C@@H](CCc1ccc(C(F)(F)F)c(Cl)c1)C(=O)O; NPrPhe(4-CF3) = CCCN[C@@H](Cc1ccc(C(F)(F)F)cc1)C(=O)O; NMeGly(cPent) = CN[C@H](C(=O)O)C1CCCC1; Pro(4,4-F2) = O=C(O)[C@@H]1CC(F)(F)CN1; Hyp = O=C(O)[C@@H]1C[C@@H](O)CN1; NMeD = CN[C@@H](CC(=O)O)C(=O)O; NMeL = CN[C@@H](CC(C)C)C(=O)O; N(Me)CH2CH2OMe = COCCN(C)*; Morpholide = C1CN(*)CCO1; Ac5c = NC1(C(=O)O)CCCC1; Ac4c = NC1(C(=O)O)CCC1; Sar = CNCC(=O)O

Legend:
[1] = biological target: GDP-bound NRAS wild-type protein (Homo sapiens, UniProt P01111); experiment: Binding to NRAS by surface plasmon resonance (SPR), Single Cycle Kinetics; conditions: SPR, GDP-bound NRAS wild-type protein vs GDP-bound KRAS wild-type protein
[2] = biological target: GDP-bound KRAS wild-type protein (Homo sapiens, UniProt P01116); experiment: Binding to KRAS by surface plasmon resonance (SPR), Single Cycle Kinetics; conditions: SPR Single Cycle Kinetics, GDP-bound KRAS wild-type protein, 1:1 binding model; read-out: KRAS KD
[3] = biological target: GDP-bound HRAS wild-type protein (Homo sapiens, UniProt P01112); experiment: Binding to HRAS by surface plasmon resonance (SPR), Single Cycle Kinetics; conditions: SPR, GDP-bound HRAS wild-type protein vs GDP-bound KRAS wild-type protein
GDP-bound HRAS wild-type protein, sequence (P01112 whole entry): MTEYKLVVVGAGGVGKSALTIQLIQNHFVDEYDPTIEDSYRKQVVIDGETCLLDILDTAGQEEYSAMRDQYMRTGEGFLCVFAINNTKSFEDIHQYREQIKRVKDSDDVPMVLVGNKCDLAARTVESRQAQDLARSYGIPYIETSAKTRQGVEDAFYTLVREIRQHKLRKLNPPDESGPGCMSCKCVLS

GDP-bound NRAS wild-type protein, sequence (P01111 whole entry): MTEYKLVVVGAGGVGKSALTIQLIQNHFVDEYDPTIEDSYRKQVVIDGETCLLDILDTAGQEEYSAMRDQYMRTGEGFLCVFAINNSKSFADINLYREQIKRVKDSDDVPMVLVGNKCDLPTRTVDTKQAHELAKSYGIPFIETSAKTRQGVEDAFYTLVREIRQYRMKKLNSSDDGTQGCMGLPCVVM
GDP-bound KRAS wild-type protein, sequence (P01116 whole entry): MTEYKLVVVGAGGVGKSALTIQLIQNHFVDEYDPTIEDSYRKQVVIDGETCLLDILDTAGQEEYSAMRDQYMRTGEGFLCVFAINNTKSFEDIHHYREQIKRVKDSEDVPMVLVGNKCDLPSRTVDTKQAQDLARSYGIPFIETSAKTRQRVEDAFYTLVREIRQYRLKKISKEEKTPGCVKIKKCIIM

Row | Kd [2] [nM] | Structure (SMILES) | NRAS/KRAS (ratio of KD value for NRAS to KD value for KRAS) [1] | HRAS/KRAS (ratio of KD value for HRAS to KD value for KRAS) [3]
1 | 0.092 | CCCN1C(=O)CN(C)C(=O)CN(C)C(=O)[C@H]([C@@H](C)CC)NC(=O)[C@H](CC(C)C)N(C)C(=O)C[C@@H](C(=O)N(C)CCOC)N(C)C(=O)[C@H](C2CCCC2)N(C)C(=O)C2(CCCC2)NC(=O)[C@@H]2CCCN2C(=O)[C@H](CCc2ccc(C(F)(F)F)c(Cl)c2)NC(=O)CN(C)C(=O)[C@@H]1Cc1ccc(C(F)(F)F)cc1 [PP0391] ([NMeL]I[Sar][Sar][NPrPhe(4-CF3)][Sar][hPhe(3-Cl-4-CF3)]P[Ac5c][NMeGly(cPent)][NMeD]-{N(Me)CH2CH2OMe}; lactam N-11) | B (a compound having 3 or more and less than 10 is denoted as B) | B (a compound having 3 or more and less than 10 is denoted as B)
2 | 0.067 | CCCN1C(=O)CN(C)C(=O)CN(C)C(=O)[C@H]([C@@H](C)CC)NC(=O)[C@H](CC(C)C)N(C)C(=O)C[C@@H](C(=O)N2CCOCC2)N(C)C(=O)[C@H](C2CCCC2)N(C)C(=O)C2(CCC2)NC(=O)[C@@H]2C[C@@H](OCC)CN2C(=O)[C@H](CCc2ccc(C(F)(F)F)c(Cl)c2)NC(=O)CN(C)C(=O)[C@@H]1Cc1ccc(C(F)(F)F)cc1 [PP0392] ([NMeL]I[Sar][Sar][NPrPhe(4-CF3)][Sar][hPhe(3-Cl-4-CF3)][Hyp](Et)[Ac4c][NMeGly(cPent)][NMeD]-Morpholide; lactam N-11) | B (a compound having 3 or more and less than 10 is denoted as B) | C (A compound having a KD ratio of 0.1 or more and less than 3 is denoted as C)
3 | 0.11 | CCCN1C(=O)CN(C)C(=O)CNC(=O)[C@H]([C@@H](C)CC)NC(=O)[C@H](CC(C)C)N(C)C(=O)C[C@@H](C(=O)N2CCOCC2)N(C)C(=O)[C@H](C2CCCC2)N(C)C(=O)C2(CCC2)NC(=O)[C@@H]2CCCN2C(=O)[C@H](CCc2ccc(C(F)(F)F)c(Cl)c2)NC(=O)CN(C)C(=O)[C@@H]1Cc1ccc(C(F)(F)F)cc1 [PP0393] ([NMeL]IG[Sar][NPrPhe(4-CF3)][Sar][hPhe(3-Cl-4-CF3)]P[Ac4c][NMeGly(cPent)][NMeD]-Morpholide; lactam N-11) | B (a compound having 3 or more and less than 10 is denoted as B) | B (a compound having 3 or more and less than 10 is denoted as B)
4 | 0.24 | CCCN1C(=O)CN(C)C(=O)CNC(=O)[C@H]([C@@H](C)CC)NC(=O)[C@H](CC(C)C)N(C)C(=O)C[C@@H](C(=O)N2CCOCC2)N(C)C(=O)[C@H](C2CCCC2)N(C)C(=O)C2(CCCC2)NC(=O)[C@@H]2CC(F)(F)CN2C(=O)[C@H](CCc2ccc(C(F)(F)F)c(Cl)c2)NC(=O)CN(C)C(=O)[C@@H]1Cc1ccc(C(F)(F)F)cc1 [PP0394] ([NMeL]IG[Sar][NPrPhe(4-CF3)][Sar][hPhe(3-Cl-4-CF3)][Pro(4,4-F2)][Ac5c][NMeGly(cPent)][NMeD]-Morpholide; lactam N-11) | C (A compound having a KD ratio of 0.1 or more and less than 3 is denoted as C) | C (A compound having a KD ratio of 0.1 or more and less than 3 is denoted as C)
5 | 0.068 | CCCN1C(=O)CN(C)C(=O)CNC(=O)[C@H]([C@@H](C)CC)NC(=O)[C@H](CC(C)C)N(C)C(=O)C[C@@H](C(=O)N2CCOCC2)N(C)C(=O)[C@H](C2CCCC2)N(C)C(=O)C2(CCC2)NC(=O)[C@@H]2CC(F)(F)CN2C(=O)[C@H](CCc2ccc(C(F)(F)F)c(Cl)c2)NC(=O)CN(C)C(=O)[C@@H]1Cc1ccc(C(F)(F)F)cc1 [PP0395] ([NMeL]IG[Sar][NPrPhe(4-CF3)][Sar][hPhe(3-Cl-4-CF3)][Pro(4,4-F2)][Ac4c][NMeGly(cPent)][NMeD]-Morpholide; lactam N-11) | B (a compound having 3 or more and less than 10 is denoted as B) | C (A compound having a KD ratio of 0.1 or more and less than 3 is denoted as C)
